In PubChem BioAssay (NCI):
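Compound exposure: 48 hours, 5 concentrations, 96-well plates. GI50 is the concentration that inhibits growth by half. TGI marks complete inhibition of growth.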

Legend:
Test in all cases: NCI tumour cell line growth inhibition, 48 h
DLD-1 colon = system: DLD-1 colon
DMS 114 small cell lung = system: DMS 114 small cell lung
DMS 273 small cell lung = system: DMS 273 small cell lung
HOP-18 NSCLC = system: HOP-18 NSCLC
KM20L2 colon = system: KM20L2 colon
LXFL 529 NSCLC = system: LXFL 529 NSCLC
M19-MEL melanoma = system: M19-MEL melanoma
RXF-631 renal = system: RXF-631 renal
XF 498 CNS = system: XF 498 CNS
SNB-78 CNS = system: SNB-78 CNS
P388/ADR leukemia = system: P388/ADR leukemia
SN12K1 renal = system: SN12K1 renal

Structure (SMILES) | GI50 (DLD-1 colon) [µM] | GI50 (DMS 114 small cell lung) [µM] | TGI (DMS 273 small cell lung) [µM] | GI50 (HOP-18 NSCLC) [µM] | TGI (HOP-18 NSCLC) [µM] | TGI (KM20L2 colon) [µM] | GI50 (LXFL 529 NSCLC) [µM] | GI50 (M19-MEL melanoma) [µM] | TGI (RXF-631 renal) [µM] | GI50 (XF 498 CNS) [µM] | TGI (DMS 114 small cell lung) [µM] | TGI (LXFL 529 NSCLC) [µM] | TGI (M19-MEL melanoma) [µM] | TGI (SNB-78 CNS) [µM] | TGI (XF 498 CNS) [µM] | TGI (DLD-1 colon) [µM] | GI50 (DMS 273 small cell lung) [µM] | TGI (P388/ADR leukemia) [µM] | TGI (SN12K1 renal) [µM] | GI50 (SNB-78 CNS) [µM]
O=C(NC(=O)c1ccccc1[N+](=O)[O-])Nc1ccc(Oc2ncc(Br)cn2)c(Cl)c1 | < 0.0201 | 0.00331 | 0.0212 | > 100 | > 100 | 0.059 | < 0.0224 | < 0.0229 | 0.056 | < 0.0251 | – | – | – | – | – | – | – | – | – | –
C=C(C)C(=O)OC1C/C(CO)=C\C(O)C/C(C)=C/C2OC(=O)C(=C)C21 (stereo not drawn) | – | – | > 100 | – | 83.4 | 97.3 | – | – | 36.7 | – | 60.8 | 32.2 | 92.7 | > 100 | 29.3 | – | – | – | – | –
CCCCC#C[I+]c1ccccc1 | – | – | 40.9 | – | 27.6 | 35.9 | – | – | 35.6 | – | – | 24.6 | 30.1 | 60.3 | 28.6 | 38.2 | – | – | – | –
Cc1c(O)c(O)cc[n+]1C1OC(CO)C(O)C1O (stereo not drawn) | – | – | > 100 | – | > 100 | > 100 | – | – | – | – | – | > 100 | > 100 | > 100 | – | > 100 | – | – | – | –
O=C(CCN1CCCCC1)C(=Cc1ccccc1)C(=O)CCN1CCCCC1 | – | 38.7 | > 100 | > 100 | > 100 | > 100 | – | – | – | 5.35 | – | – | > 100 | > 100 | > 100 | 44.5 | 7.61 | > 72.4 | > 100 | 3.5
CCC(C(=O)O)c1ccc(OC)cc1 (stereo not drawn) | – | – | > 100 | – | – | > 100 | – | – | > 100 | – | > 100 | > 100 | > 100 | > 100 | > 100 | > 100 | – | – | – | –
